Data set [1] relates to rat duodenal, jejunal, and ileal segments. The data set can be described thus: Intestinal absorptive permeability in Ussing chambers. The format is in vitro ADME. As for the experimental part:
[31]. Briefly, duodenum, jejunum, and ileum segments were dissected and washed as described earlier. The duodenal, jejunal, and ileal segments mounted on the inserts of the Ussing chambers ([…], Holliston, MA, USA) were acclimatized with HBSS for 30 min. […] Aliquots (400 μL) of HBSS in the basal side were withdrawn at 0, 30, 60, 90, and 120 min, and the withdrawn samples were compensated with an equal volume of fresh, preheated HBSS. Carbogen gas (5% CO2/ 95% O2) was bubbled into the Ussing chambers at a rate of 150 drops/min during the experiment. […] For the generation of Na^+ gradient, rat duodenal, jejunal, and ileal segments mounted on the inserts of the Ussing chamber were pretreated with Na^+ free media comprising 10 mM HEPES, 5 mM Tris, 140 mM choline chloride, 2 mM KCl, 1 mM CaCl2, and 1 mM MgCl2 (pH7.4) for 30 min. […] A 100 μL aliquot of samples was transferred to 96-well plates and the fluorescence of Lucifer yellow was read directly in a fluorescence plate reader using a 485 nm excitation and an emission filter of 535 nm.

In data set [2] the target is T1, MATE1 (Homo sapiens, UniProt Q96FL8).
T1 sequence (Q96FL8 1-570): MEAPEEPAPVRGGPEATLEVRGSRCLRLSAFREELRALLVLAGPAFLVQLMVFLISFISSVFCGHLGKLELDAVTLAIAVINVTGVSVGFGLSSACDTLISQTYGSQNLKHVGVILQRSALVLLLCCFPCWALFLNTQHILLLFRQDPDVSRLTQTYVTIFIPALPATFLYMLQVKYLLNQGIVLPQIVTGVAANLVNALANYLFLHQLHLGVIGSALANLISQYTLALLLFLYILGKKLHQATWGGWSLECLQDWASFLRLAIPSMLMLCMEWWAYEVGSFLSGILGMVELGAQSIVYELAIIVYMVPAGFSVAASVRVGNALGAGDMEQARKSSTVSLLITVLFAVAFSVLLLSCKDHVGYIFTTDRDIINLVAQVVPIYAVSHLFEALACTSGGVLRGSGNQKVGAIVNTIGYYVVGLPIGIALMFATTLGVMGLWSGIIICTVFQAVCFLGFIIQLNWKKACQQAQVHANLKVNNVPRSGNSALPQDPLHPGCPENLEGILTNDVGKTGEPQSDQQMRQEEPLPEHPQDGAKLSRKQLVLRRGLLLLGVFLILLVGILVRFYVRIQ
Conditions: read-out: IC50 for MATE1 reported in the literature; cited from earlier work.

Data set [3] concerns the target T2, OCT1 (Homo sapiens, UniProt O15245).
T2 sequence (O15245 1-554): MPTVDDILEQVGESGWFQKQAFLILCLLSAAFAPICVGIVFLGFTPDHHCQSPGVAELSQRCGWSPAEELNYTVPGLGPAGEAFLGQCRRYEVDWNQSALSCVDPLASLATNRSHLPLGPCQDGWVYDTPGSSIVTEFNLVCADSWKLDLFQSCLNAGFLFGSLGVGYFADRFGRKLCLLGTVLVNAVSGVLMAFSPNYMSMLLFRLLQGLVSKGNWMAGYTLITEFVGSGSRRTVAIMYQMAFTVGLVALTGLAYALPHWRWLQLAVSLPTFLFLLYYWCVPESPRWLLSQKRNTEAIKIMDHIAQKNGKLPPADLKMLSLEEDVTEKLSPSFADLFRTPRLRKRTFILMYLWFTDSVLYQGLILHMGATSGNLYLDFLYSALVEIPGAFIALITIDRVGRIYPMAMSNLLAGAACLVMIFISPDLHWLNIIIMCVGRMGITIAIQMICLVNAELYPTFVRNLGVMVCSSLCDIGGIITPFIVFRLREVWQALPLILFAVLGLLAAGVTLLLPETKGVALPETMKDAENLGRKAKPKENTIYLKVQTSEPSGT
Conditions: read-out: IC50 for OCT1 reported in the literature; cited from earlier work.

Data set [4] deals with T3, MATE2-K (Homo sapiens, UniProt Q86VL8). The experiment in a line: Inhibition of MATE2-K-mediated [14C]metformin uptake in HEK293-MATE2-K cells. In kind it is cell-based. Also noted: host or cells: HEK293. Conditions: read-out: IC50 on MATE2-K-mediated metformin uptake, 10 µM [14C]metformin, 5 min. Here is the method:
(§1) HEK293 cells overexpressing OCT1, OCT2, MATE1, and MATE2-K (HEK293-OCT1, -OCT2, MATE1, and MATE2-K, respectively; Corning, Tewksbury, MA, USA) were used and characterized as previously described. […] In HEK293-MATE1 or -MATE2-K cells, 2 mM sodium butyrate was also supplemented in the culture medium. […] Sigma, St. Louis, MO, USA) and incubated for 30 min in HBSS. In HEK293-MATE1, or -MATE2-K cells, 40 mM ammonium chloride was also added for the outwardly directed proton gradient. […] After the 5 min incubation, cells were washed three times with 200 µL of ice-cold HBSS immediately after placing the plates on ice. Then, the cells were lysed with 10% sodium dodecyl sulfate (SDS) and the cell lysates were mixed with Optiphase cocktail solution. Thereafter, the radioactivity of the cell lysates was measured using a liquid scintillation counter (Microbeta 2, Perkin Elmer Inc., Boston, MA, USA).

Data set [5] deals with T3, MATE2-K. Particulars: read-out: IC50 for MATE2-K reported in the literature; cited from earlier work.
In data set [6] the target is T4, OCT2 (Homo sapiens, UniProt O15244).
T4 sequence (O15244 1-555): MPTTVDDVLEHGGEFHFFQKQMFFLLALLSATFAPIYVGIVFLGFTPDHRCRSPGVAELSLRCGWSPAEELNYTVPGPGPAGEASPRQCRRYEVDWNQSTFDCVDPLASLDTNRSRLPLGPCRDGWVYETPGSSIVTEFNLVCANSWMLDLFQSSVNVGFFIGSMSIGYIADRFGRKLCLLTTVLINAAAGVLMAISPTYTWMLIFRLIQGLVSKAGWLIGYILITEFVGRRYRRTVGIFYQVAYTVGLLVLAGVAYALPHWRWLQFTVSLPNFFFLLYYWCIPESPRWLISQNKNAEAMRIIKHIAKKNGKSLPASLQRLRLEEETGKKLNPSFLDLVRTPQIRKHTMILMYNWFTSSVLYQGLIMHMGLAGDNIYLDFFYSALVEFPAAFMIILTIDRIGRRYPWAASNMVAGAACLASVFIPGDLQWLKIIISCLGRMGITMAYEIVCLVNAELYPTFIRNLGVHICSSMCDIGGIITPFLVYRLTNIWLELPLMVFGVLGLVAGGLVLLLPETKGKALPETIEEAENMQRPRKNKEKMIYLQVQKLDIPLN
Particulars: read-out: IC50 for OCT2 reported in the literature; cited from earlier work.

In data set [7] the target is T2, OCT1. The experiment in a line: Inhibition of OCT1-mediated [14C]metformin uptake in HEK293-OCT1 cells. In kind it is cell-based. Also noted: host or cells: HEK293. As for the experimental part:
as §1

For data set [8], the target named is T4, OCT2. The experiment in a line: Inhibition of OCT2-mediated [14C]metformin uptake in HEK293-OCT2 cells. Also noted: host or cells: HEK293. The format is cell-based. Here is the method:
as §1

Data set [9] in a line: Pharmacokinetics of metformin after oral administration in rats. Particulars: metformin 50 mg/kg PO, rat; for AUC(0-t): AUC24h.
Method: (§2) Aliquots of plasma (20 µL) and urine (50 µL) samples were vigorously mixed with 200 μL methanol containing 20 ng/mL propranolol (internal standard, IS) for 10 min.
(§3) Samples were eluted through a Synergy Polar RP column (2.0 mm × 150 mm, 4 µm particle size, Phenomenex, Torrence, CA, USA) using a mobile phase that consisted of methanol and water (70:30, v/v) with 0.1% formic acid at a flow rate of 0.2 mL/min. […] Pharmacokinetic parameters were evaluated from plasma concentration versus time curves by using non-compartment analysis of WinNonlin (version 5.1; Pharsights, Cary, NC, USA).
Details of data set [10]: method as in PMID 26869413. Conditions: cited from earlier work.
A short description of data set [11]: Pharmacokinetics of metformin after intravenous injection in rats. Particulars: rat; for Ae24h (fraction of dose excreted in urine for 24 h as parent form) / AUC(0-t) / AUC(0-inf) / MRT: metformin […] IV; for AUC(0-t) / AUC(0-inf) / C0 / MRT: plasma, iv; for AUC(0-t): AUC24h; for C0: C0, metformin […] IV.
Method: An aliquot (50 µL) of urine samples was stored at −80 °C for the analysis.
as §2, §3
Setting [12] is: plasma, po, 50 mg/kg, 1WRA of RGE 1.5 g/kg/day.
[13] abbreviates: plasma, po, 50 mg/kg, SA of RGE 1.5 g/kg.

Where two headings read alike, the source gives them in different places.

This is an account of results in article PMC6523382 (Pharmaceutics, 2019).

T3 sequence (Q86VL8 1-566 isoform Q86VL8-3): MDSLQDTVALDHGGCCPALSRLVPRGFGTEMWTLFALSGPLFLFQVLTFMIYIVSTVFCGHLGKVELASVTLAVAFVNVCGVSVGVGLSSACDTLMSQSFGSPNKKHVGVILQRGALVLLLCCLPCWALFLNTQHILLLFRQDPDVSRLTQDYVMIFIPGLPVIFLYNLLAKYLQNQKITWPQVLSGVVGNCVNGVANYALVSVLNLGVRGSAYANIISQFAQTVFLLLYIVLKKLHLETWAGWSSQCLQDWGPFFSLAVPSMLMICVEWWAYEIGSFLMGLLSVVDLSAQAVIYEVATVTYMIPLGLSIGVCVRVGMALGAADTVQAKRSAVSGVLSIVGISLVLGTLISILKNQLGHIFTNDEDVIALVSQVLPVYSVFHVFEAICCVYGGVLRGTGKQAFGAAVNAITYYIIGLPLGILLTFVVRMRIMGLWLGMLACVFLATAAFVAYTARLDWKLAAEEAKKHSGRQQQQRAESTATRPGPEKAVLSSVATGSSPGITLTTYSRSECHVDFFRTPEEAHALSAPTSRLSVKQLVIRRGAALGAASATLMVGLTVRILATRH

As for `CO[C@@H]([C@H](O)[C@H](O)CO)[C@@H](O)C=O` [3-O-methyl-D-glucose], the “Intestinal absorptive permeability (Papp), effect of RGE” value in data set [1] (50 µM, duodenum, jejunum, ileum, SA and 1WRA groups vs control) is reported as “not affected”.
`CN/C(=N/CCSCc1nc[nH]c1C)NC#N` [cimetidine]: the concentration for half-maximal inhibition (IC50) in data set [2] is 0.7 µM; in [3], 57 µM; in [4], 5.03 µM; in data set [5], 4.8 µM; in data set [6], 110 µM; in data set [7], 61.8 µM. Half-maximal inhibition in [8] (IC50) was put at 197 µM.
As to `CN(C)C(=N)N=C(N)N` [metformin, Metformin], the “Ae24h (fraction of dose excreted in urine for 24 h as parent form)” value in [9] (1WRA of RGE 1.5 g/kg/day) turned out to be 66.29 ± 10.57 %; in [9] (Control), 54.56 ± 3.26%; in [9] (SA of RGE 1.5 g/kg), 53.04 ± 3.69%; in data set [11] (1WRA of RGE 1.5 g/kg/day), 79.56 ± 5.02%; in data set [11] (Control), 80.07 ± 4.93%; in data set [11] (SA of RGE 1.5 g/kg) it was 83.52 ± 5.72%. Moreover, the Tmax in data set [9] (1WRA of RGE 1.5 g/kg/day) came to 2.00 ± 0.01 h; in data set [9] (plasma, po, 50 mg/kg, Tmax, Control), 2.4 ± 0.89 h. Moreover, the AUC(0-t) in data set [9] (setting [12]) was found to be 57600 ± 4990 ng·h/mL; in [9] (plasma, po, 50 mg/kg, Control), 44300 ± 8310 ng·h/mL; in data set [9] (setting [13]), 45200 ± 11100 ng·h/mL; in data set [11] (1WRA of RGE 1.5 g/kg/day), 980 ± 362 ng·h/mL; in data set [11] (SA of RGE 1.5 g/kg), 1050 ± 237 ng·h/mL. Besides, the AUC(0-inf) came out at 59000 ± 5170 ng·h/mL in data set [9] (setting [12]); 44800 ± 8090 ng·h/mL in data set [9] (plasma, po, 50 mg/kg, Control); 45700 ± 11200 ng·h/mL in [9] (setting [13]); 986 ± 364 ng·h/mL in [11] (1WRA of RGE 1.5 g/kg/day); 1050 ± 239 ng·h/mL in data set [11] (SA of RGE 1.5 g/kg). Also, the Cmax was 9900 ± 1490 ng/mL in data set [9] (setting [12]); 6310 ± 1680 ng/mL in data set [9] (plasma, po, 50 mg/kg, Control); 6470 ± 2000 ng/mL in data set [9] (setting [13]). Besides, the MRT in data set [9] (setting [12]) worked out at 4.64 ± 0.68 h; in data set [9] (plasma, po, 50 mg/kg, Control), 4.85 ± 0.58 h; in data set [9] (setting [13]), 4.69 ± 0.33 h; in data set [11] (1WRA of RGE 1.5 g/kg/day) it was 0.85 ± 0.35 h; in [11] (SA of RGE 1.5 g/kg), 0.81 ± 0.17 h. For the same compound, the “Fraction of dose absorbed in the duodenum” value in data set [10] is reported as “Approximately 20%”. Moreover, the “Fraction of dose absorbed in the jejunum and ileum” value in [10] is reported as 60%. The C0 in data set [11] (1WRA of RGE 1.5 g/kg/day) was 1760 ± 438 ng/mL; in [11] (SA of RGE 1.5 g/kg) it was 1670 ± 623 ng/mL.
Consider Lucifer yellow, for which, in data set [1], the “Intestinal absorptive permeability (Papp), effect of RGE” value is recorded as “not altered”.
